Results as given in patent US9399904B2, “Oil recovery system and method” (SHELL OIL COMPANY, priority 2013, dated 2016).

Experiment: Dynamic viscosity of crude/dimethyl sulfide blends, closed cup rheometer
Type: physicochemical
Description: The quality of dimethyl sulfide as an oil recovery agent based on the crude oil viscosity lowering properties of dimethyl sulfide was evaluated. Three crude oils having widely disparate viscosity characteristics—an African Waxy crude, a Middle Eastern asphaltic crude, and a Canadian asphaltic crude—were blended with dimethyl sulfide.
A control sample of each crude was prepared containing no dimethyl sulfide, and samples of each crude were prepared and blended with dimethyl sulfide to prepare crude samples containing increasing concentrations of dimethyl sulfide. The samples were heated to 60° C. to dissolve any waxes therein and to permit weighing of a homogeneous liquid. The samples were weighed, allowed to cool overnight, then blended with a selected quantity of dimethyl sulfide. The samples of the crude/dimethyl sulfide blend were then heated to 60° C. and mixed to ensure homogeneous blending of the dimethyl sulfide in the samples. Absolute (dynamic) viscosity measurements of each of the samples were taken using a closed cup rheometer using a PZ39 rotor sensor assembly in the rheometer. Viscosity measurements of each of the samples of the West African waxy crude and the Middle Eastern asphaltic crude were taken at 20° C., 40° C., 60° C., 80° C., and then again at 20° C. after cooling from 80° C., where the second measurement at 20° C. is taken to measure the viscosity without the presence of waxes since wax formation occurs slowly enough to permit viscosity measurement at 20° C. without the presence of wax. Viscosity measurements of each of the samples of the Canadian asphaltic crude were taken at 5° C., 10° C., 20° C., 40° C., 60° C., 80° C., The measured viscosities for each of the crudes are shown in Tables 4, 5, and 6 below.

- Viscosity of West African Waxy Crude (1.21 wt. % DMS, 20° C.): 125.8 mPa s
- Viscosity of West African Waxy Crude (1.21 wt. % DMS, 20° C. after cooling from 80° C.): 100.1 mPa s
- Viscosity of West African Waxy Crude (1.21 wt. % DMS, 40° C.): 30.94 mPa s
- Viscosity of West African Waxy Crude (1.21 wt. % DMS, 60° C.): 14.66 mPa s
- Viscosity of West African Waxy Crude (1.21 wt. % DMS, 80° C.): 8.92 mPa s
- Viscosity of Middle Eastern Asphaltic Crude (1.3 wt. % DMS, 20° C.): 1733.8 mPa s
- Viscosity of Middle Eastern Asphaltic Crude (1.3 wt. % DMS, 20° C. after cooling from 80° C.): 1624.8 mPa s
- Viscosity of Middle Eastern Asphaltic Crude (1.3 wt. % DMS, 40° C.): 334.5 mPa s
- Viscosity of Middle Eastern Asphaltic Crude (1.3 wt. % DMS, 60° C.): 106.7 mPa s
- Viscosity of Middle Eastern Asphaltic Crude (1.3 wt. % DMS, 80° C.): 44.6 mPa s
- Viscosity of Topped Canadian Asphaltic Crude (1.43 wt. % DMS, 20° C.): 212525 mPa s
- Viscosity of Topped Canadian Asphaltic Crude (1.43 wt. % DMS, 40° C.): 14721 mPa s
- Viscosity of Topped Canadian Asphaltic Crude (1.43 wt. % DMS, 60° C.): 2209 mPa s
- Viscosity of Topped Canadian Asphaltic Crude (1.43 wt. % DMS, 80° C.): 538 mPa s
- Viscosity of Topped Canadian Asphaltic Crude (2.07 wt. % DMS, 20° C.): 134880 mPa s
- Viscosity of Topped Canadian Asphaltic Crude (2.07 wt. % DMS, 40° C.): 10523 mPa s
- Viscosity of Topped Canadian Asphaltic Crude (2.07 wt. % DMS, 60° C.): 1747 mPa s
- Viscosity of Topped Canadian Asphaltic Crude (2.07 wt. % DMS, 80° C.): 427 mPa s
- Viscosity of West African Waxy Crude (2.48 wt. % DMS, 20° C.): 122.3 mPa s
- Viscosity of West African Waxy Crude (2.48 wt. % DMS, 20° C. after cooling from 80° C.): 89.23 mPa s
- Viscosity of West African Waxy Crude (2.48 wt. % DMS, 40° C.): 30.53 mPa s
- Viscosity of West African Waxy Crude (2.48 wt. % DMS, 60° C.): 13.66 mPa s
- Viscosity of West African Waxy Crude (2.48 wt. % DMS, 80° C.): 8.44 mPa s
- Viscosity of Middle Eastern Asphaltic Crude (2.6 wt. % DMS, 20° C.): 1026.6 mPa s
- Viscosity of Middle Eastern Asphaltic Crude (2.6 wt. % DMS, 20° C. after cooling from 80° C.): 881.1 mPa s
- Viscosity of Middle Eastern Asphaltic Crude (2.6 wt. % DMS, 40° C.): 219.9 mPa s
- Viscosity of Middle Eastern Asphaltic Crude (2.6 wt. % DMS, 60° C.): 76.5 mPa s
- Viscosity of Middle Eastern Asphaltic Crude (2.6 wt. % DMS, 80° C.): 34.3 mPa s
- Viscosity of Topped Canadian Asphaltic Crude (4.87 wt. % DMS, 20° C.): 28720 mPa s
- Viscosity of Topped Canadian Asphaltic Crude (4.87 wt. % DMS, 40° C.): 3235 mPa s
- Viscosity of Topped Canadian Asphaltic Crude (4.87 wt. % DMS, 60° C.): 985 mPa s
- Viscosity of Topped Canadian Asphaltic Crude (4.87 wt. % DMS, 80° C.): 328 mPa s
- Viscosity of West African Waxy Crude (5.03 wt. % DMS, 20° C.): 78.37 mPa s
- Viscosity of West African Waxy Crude (5.03 wt. % DMS, 20° C. after cooling from 80° C.): 55.21 mPa s
- Viscosity of West African Waxy Crude (5.03 wt. % DMS, 40° C.): 20.24 mPa s
- Viscosity of West African Waxy Crude (5.03 wt. % DMS, 60° C.): 10.45 mPa s
- Viscosity of West African Waxy Crude (5.03 wt. % DMS, 80° C.): 6.55 mPa s
- Viscosity of Middle Eastern Asphaltic Crude (5.3 wt. % DMS, 20° C.): 496.5 mPa s
- Viscosity of Middle Eastern Asphaltic Crude (5.3 wt. % DMS, 20° C. after cooling from 80° C.): 503.5 mPa s
- Viscosity of Middle Eastern Asphaltic Crude (5.3 wt. % DMS, 40° C.): 134.2 mPa s
- Viscosity of Middle Eastern Asphaltic Crude (5.3 wt. % DMS, 60° C.): 52.2 mPa s
- Viscosity of Middle Eastern Asphaltic Crude (5.3 wt. % DMS, 80° C.): 25.5 mPa s
- Viscosity of Middle Eastern Asphaltic Crude (7.6 wt. % DMS, 20° C.): 288.0 mPa s
- Viscosity of West African Waxy Crude (7.60 wt. % DMS, 20° C.): 60.92 mPa s
- Viscosity of Middle Eastern Asphaltic Crude (7.6 wt. % DMS, 20° C. after cooling from 80° C.): 290.0 mPa s
- Viscosity of West African Waxy Crude (7.60 wt. % DMS, 20° C. after cooling from 80° C.): 40.89 mPa s
- Viscosity of Middle Eastern Asphaltic Crude (7.6 wt. % DMS, 40° C.): 89.4 mPa s
- Viscosity of West African Waxy Crude (7.60 wt. % DMS, 40° C.): 17.08 mPa s
- Viscosity of Middle Eastern Asphaltic Crude (7.6 wt. % DMS, 60° C.): 37.4 mPa s
- Viscosity of West African Waxy Crude (7.60 wt. % DMS, 60° C.): 9.29 mPa s
- Viscosity of Middle Eastern Asphaltic Crude (7.6 wt. % DMS, 80° C.): 19.3 mPa s
- Viscosity of West African Waxy Crude (7.60 wt. % DMS, 80° C.): 6.09 mPa s
- Viscosity of Topped Canadian Asphaltic Crude (8.01 wt. % DMS, 20° C.): 5799 mPa s
- Viscosity of Topped Canadian Asphaltic Crude (8.01 wt. % DMS, 40° C.): 982 mPa s
- Viscosity of Topped Canadian Asphaltic Crude (8.01 wt. % DMS, 60° C.): 275 mPa s
- Viscosity of Topped Canadian Asphaltic Crude (8.01 wt. % DMS, 80° C.): 106 mPa s
- Viscosity of Topped Canadian Asphaltic Crude (9.80 wt. % DMS, 20° C.): 2760 mPa s
- Viscosity of Topped Canadian Asphaltic Crude (9.80 wt. % DMS, 40° C.): 571 mPa s
- Viscosity of Topped Canadian Asphaltic Crude (9.80 wt. % DMS, 60° C.): 173 mPa s
- Viscosity of Topped Canadian Asphaltic Crude (9.80 wt. % DMS, 80° C.): 73 mPa s
- Viscosity of West African Waxy Crude (9.95 wt. % DMS, 20° C.): 44.70 mPa s
- Viscosity of West African Waxy Crude (9.95 wt. % DMS, 20° C. after cooling from 80° C.): 30.61 mPa s
- Viscosity of West African Waxy Crude (9.95 wt. % DMS, 40° C.): 13.03 mPa s
- Viscosity of West African Waxy Crude (9.95 wt. % DMS, 60° C.): 7.58 mPa s
- Viscosity of West African Waxy Crude (9.95 wt. % DMS, 80° C.): 5.04 mPa s
- Viscosity of Middle Eastern Asphaltic Crude (10.1 wt. % DMS, 20° C.): 150.0 mPa s
- Viscosity of Middle Eastern Asphaltic Crude (10.1 wt. % DMS, 20° C. after cooling from 80° C.): 150.5 mPa s
- Viscosity of Middle Eastern Asphaltic Crude (10.1 wt. % DMS, 40° C.): 52.4 mPa s
- Viscosity of Middle Eastern Asphaltic Crude (10.1 wt. % DMS, 60° C.): 24.5 mPa s
- Viscosity of Middle Eastern Asphaltic Crude (10.1 wt. % DMS, 80° C.): 13.5 mPa s
- Viscosity of Topped Canadian Asphaltic Crude (14.81 wt. % DMS, 5° C.): 1794 mPa s
- Viscosity of Topped Canadian Asphaltic Crude (14.81 wt. % DMS, 10° C.): 1155 mPa s
- Viscosity of Topped Canadian Asphaltic Crude (14.81 wt. % DMS, 20° C.): 548 mPa s
- Viscosity of Topped Canadian Asphaltic Crude (14.81 wt. % DMS, 40° C.): 159 mPa s
- Viscosity of Topped Canadian Asphaltic Crude (14.81 wt. % DMS, 60° C.): 64 mPa s
- Viscosity of Topped Canadian Asphaltic Crude (14.81 wt. % DMS, 80° C.): 32 mPa s
- Viscosity of West African Waxy Crude (15.13 wt. % DMS, 20° C.): 23.96 mPa s
- Viscosity of West African Waxy Crude (15.13 wt. % DMS, 20° C. after cooling from 80° C.): 17.64 mPa s
- Viscosity of West African Waxy Crude (15.13 wt. % DMS, 40° C.): 8.32 mPa s
- Viscosity of West African Waxy Crude (15.13 wt. % DMS, 60° C.): 4.97 mPa s
- Viscosity of West African Waxy Crude (15.13 wt. % DMS, 80° C.): 3.38 mPa s
- Viscosity of Middle Eastern Asphaltic Crude (15.2 wt. % DMS, 20° C.): 59.4 mPa s
- Viscosity of Middle Eastern Asphaltic Crude (15.2 wt. % DMS, 20° C. after cooling from 80° C.): 60.7 mPa s
- Viscosity of Middle Eastern Asphaltic Crude (15.2 wt. % DMS, 40° C.): 25.2 mPa s
- Viscosity of Middle Eastern Asphaltic Crude (15.2 wt. % DMS, 60° C.): 13.6 mPa s
- Viscosity of Middle Eastern Asphaltic Crude (15.2 wt. % DMS, 80° C.): 8.2 mPa s
- Viscosity of West African Waxy Crude (19.30 wt. % DMS, 20° C.): 15.26 mPa s
- Viscosity of West African Waxy Crude (19.30 wt. % DMS, 20° C. after cooling from 80° C.): 12.06 mPa s
- Viscosity of West African Waxy Crude (19.30 wt. % DMS, 40° C.): 6.25 mPa s
- Viscosity of West African Waxy Crude (19.30 wt. % DMS, 60° C.): 4.05 mPa s
- Viscosity of West African Waxy Crude (19.30 wt. % DMS, 80° C.): 2.92 mPa s
- Viscosity of Topped Canadian Asphaltic Crude (19.78 wt. % DMS, 20° C.): 188 mPa s
- Viscosity of Topped Canadian Asphaltic Crude (19.78 wt. % DMS, 40° C.): 69 mPa s
- Viscosity of Topped Canadian Asphaltic Crude (19.78 wt. % DMS, 60° C.): 33 mPa s
- Viscosity of Topped Canadian Asphaltic Crude (19.78 wt. % DMS, 80° C.): 19 mPa s
- Viscosity of Middle Eastern Asphaltic Crude (20.1 wt. % DMS, 20° C.): 29.9 mPa s
- Viscosity of Middle Eastern Asphaltic Crude (20.1 wt. % DMS, 20° C. after cooling from 80° C.): 31.0 mPa s
- Viscosity of Middle Eastern Asphaltic Crude (20.1 wt. % DMS, 40° C.): 14.8 mPa s
- Viscosity of Middle Eastern Asphaltic Crude (20.1 wt. % DMS, 60° C.): 8.7 mPa s
- Viscosity of Middle Eastern Asphaltic Crude (20.1 wt. % DMS, 80° C.): 5.7 mPa s
- Viscosity of Topped Canadian Asphaltic Crude (29.88 wt. % DMS, 5° C.): 113 mPa s
- Viscosity of Topped Canadian Asphaltic Crude (29.88 wt. % DMS, 10° C.): 81 mPa s
- Viscosity of Topped Canadian Asphaltic Crude (29.88 wt. % DMS, 20° C.): 51 mPa s
- Viscosity of Topped Canadian Asphaltic Crude (29.88 wt. % DMS, 40° C.): 22 mPa s
- Viscosity of Topped Canadian Asphaltic Crude (29.88 wt. % DMS, 60° C.): 13 mPa s
- Viscosity of Topped Canadian Asphaltic Crude (29.88 wt. % DMS, 80° C.): 8 mPa s
- Viscosity of Topped Canadian Asphaltic Crude (39.61 wt. % DMS, 5° C.): 23 mPa s
- Viscosity of Topped Canadian Asphaltic Crude (39.61 wt. % DMS, 10° C.): 20 mPa s
- Viscosity of Topped Canadian Asphaltic Crude (39.61 wt. % DMS, 20° C.): 14 mPa s
- Viscosity of Topped Canadian Asphaltic Crude (39.61 wt. % DMS, 40° C.): 8 mPa s
- Viscosity of Topped Canadian Asphaltic Crude (39.61 wt. % DMS, 60° C.): 6 mPa s
- Viscosity of Topped Canadian Asphaltic Crude (39.61 wt. % DMS, 80° C.): 4 mPa s
SMILES: CSC [Dimethyl Sulfide, dimethyl sulfide]
- lowering the viscosity of a crude oil, in words (all three crudes, particularly Canadian asphaltenic crude oil): effective for significantly lowering the viscosity of a crude oil
